# Laboratory results: patent publication US10364247B2, “Preparation and use of novel protein kinase inhibitors” (Ruijin Hospital Affiliated to Shanghai Jiao Tong University …, priority 2015, dated 2019)
# Experiments:
# Experiment in all cases: KINOMEscan competition binding
# [1] = target: ABL1(Q252H)-nonphosphorylated (Homo sapiens, UniProt P00519, Q252H); details: read-out: Percent Control
# Description: (§1) KINOMEscan™ is based on a competition binding assay that quantitatively measures the ability of a compound to compete with an immobilized, active-site directed ligand (Fabian et al. (2005) Nat. Biotechnol. 23, 329; Karaman et al. (2008) Nat. Biotechnol. 26, 127). The compound was screened at 10 μM, and results for primary screen binding interactions are reported as ‘% Ctrl’, where lower numbers indicate stronger hits. The results for kinases targets with a % Ctrl less than 30 can be seen in Table 2.
# GCN2(Kin.Dom.2, S808G) = target: T1, GCN2(Kin.Dom.2, S808G) (Homo sapiens, UniProt Q9P2K8, S808G); details: GCN2(Kin.Dom.2, S808G) (Entrez EIF2AK4), read-out: Percent Control
# T1 construct: GCN2(Kin.Dom.2, S808G)
# Description: as §1
# FER = FER (Homo sapiens, UniProt P16591); details: read-out: Percent Control
# Description: as §1
# TNIK = TNIK (Homo sapiens, UniProt Q9UKE5); details: read-out: Percent Control
# TNIK, sequence (Q9UKE5 whole entry): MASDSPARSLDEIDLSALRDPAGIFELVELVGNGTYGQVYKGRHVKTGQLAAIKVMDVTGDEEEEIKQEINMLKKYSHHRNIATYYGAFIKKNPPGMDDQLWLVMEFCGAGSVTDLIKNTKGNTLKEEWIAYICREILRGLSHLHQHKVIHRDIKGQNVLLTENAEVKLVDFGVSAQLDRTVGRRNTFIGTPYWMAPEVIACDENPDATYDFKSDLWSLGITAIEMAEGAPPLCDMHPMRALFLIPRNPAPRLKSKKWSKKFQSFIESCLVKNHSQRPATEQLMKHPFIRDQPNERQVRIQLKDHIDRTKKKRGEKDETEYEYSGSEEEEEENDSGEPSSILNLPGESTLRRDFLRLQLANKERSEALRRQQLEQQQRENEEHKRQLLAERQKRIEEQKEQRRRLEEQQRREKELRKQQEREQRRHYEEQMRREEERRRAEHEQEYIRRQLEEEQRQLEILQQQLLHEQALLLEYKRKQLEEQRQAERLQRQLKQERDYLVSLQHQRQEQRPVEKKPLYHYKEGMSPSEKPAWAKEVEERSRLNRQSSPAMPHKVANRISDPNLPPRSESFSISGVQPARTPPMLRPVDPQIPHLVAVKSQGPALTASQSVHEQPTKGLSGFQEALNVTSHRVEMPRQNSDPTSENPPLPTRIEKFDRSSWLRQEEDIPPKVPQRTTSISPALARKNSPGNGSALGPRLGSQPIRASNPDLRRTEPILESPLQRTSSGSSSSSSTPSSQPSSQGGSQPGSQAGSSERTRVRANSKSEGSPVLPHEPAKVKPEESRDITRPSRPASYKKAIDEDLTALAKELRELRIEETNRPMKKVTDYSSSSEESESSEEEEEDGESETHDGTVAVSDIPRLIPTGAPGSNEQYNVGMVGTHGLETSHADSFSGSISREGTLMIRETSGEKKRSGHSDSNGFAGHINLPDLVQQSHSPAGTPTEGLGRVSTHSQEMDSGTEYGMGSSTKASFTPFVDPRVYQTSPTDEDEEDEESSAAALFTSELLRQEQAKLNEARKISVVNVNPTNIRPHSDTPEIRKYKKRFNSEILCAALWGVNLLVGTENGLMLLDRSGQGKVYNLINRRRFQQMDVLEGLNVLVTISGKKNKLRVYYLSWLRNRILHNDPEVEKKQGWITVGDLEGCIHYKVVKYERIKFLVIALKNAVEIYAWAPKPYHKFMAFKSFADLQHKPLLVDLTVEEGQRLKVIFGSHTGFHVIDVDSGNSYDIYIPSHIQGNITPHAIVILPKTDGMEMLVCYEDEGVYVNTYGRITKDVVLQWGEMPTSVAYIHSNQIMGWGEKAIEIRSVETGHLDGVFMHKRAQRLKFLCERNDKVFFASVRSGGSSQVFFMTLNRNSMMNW
# Description: as §1
# DRAK1 = target: T2, DRAK1 (Homo sapiens, UniProt Q9UEE5); details: DRAK1 (Entrez STK17A), read-out: Percent Control
# T2 construct: purchased KINOMEscan (screening platform)
# T2 sequence (Q9UEE5 whole entry): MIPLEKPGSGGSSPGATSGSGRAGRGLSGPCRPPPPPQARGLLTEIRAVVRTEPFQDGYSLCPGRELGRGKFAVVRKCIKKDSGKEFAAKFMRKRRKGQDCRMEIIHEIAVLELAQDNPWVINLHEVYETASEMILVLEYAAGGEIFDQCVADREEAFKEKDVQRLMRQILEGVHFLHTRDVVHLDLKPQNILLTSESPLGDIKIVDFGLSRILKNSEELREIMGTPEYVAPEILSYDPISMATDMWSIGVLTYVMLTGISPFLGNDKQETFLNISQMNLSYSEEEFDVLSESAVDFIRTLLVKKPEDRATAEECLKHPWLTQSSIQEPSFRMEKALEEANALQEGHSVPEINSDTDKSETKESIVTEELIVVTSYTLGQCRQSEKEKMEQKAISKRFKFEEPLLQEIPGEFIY
# Description: as §1
# EPHA5 = EPHA5 (Homo sapiens, UniProt P54756); details: read-out: Percent Control
# Description: as §1
# EGFR(L858R, T790M) = target: T3, EGFR(L858R, T790M) (Homo sapiens, UniProt P00533, L858R/T790M); details: read-out: Percent Control
# T3 construct: purchased KINOMEscan (screening platform)
# Description: as §1
# EGFR = target: T4, EGFR (Homo sapiens, UniProt P00533); details: read-out: Percent Control
# T4 construct: purchased KINOMEscan (panel service)
# Description: as §1
# [2] = target: ABL1(Q252H)-phosphorylated (Homo sapiens, UniProt P00519, Q252H); details: read-out: Percent Control
# Description: as §1
# EPHA1 = EPHA1 (Homo sapiens, UniProt P21709); details: read-out: Percent Control
# Description: as §1
# KIT(D816H) = KIT(D816H) (Homo sapiens, UniProt P10721, D816H); details: read-out: Percent Control
# Description: as §1
# BTK = target: T5, BTK (Homo sapiens, UniProt Q06187); details: read-out: Percent Control
# T5 construct: purchased KINOMEscan (panel service)
# Description: as §1
# JNK1 = target: T6, JNK1 (Homo sapiens, UniProt P45983); details: JNK1 (Entrez MAPK8), read-out: Percent Control
# T6 construct: purchased KINOMEscan (screening platform)
# Description: as §1
# RAF1 = target: T7, RAF1 (Homo sapiens, UniProt P04049); details: read-out: Percent Control
# T7 construct: purchased KINOMEscan (screening service)
# Description: as §1
# [3] = target: T8, RSK4(Kin.Dom.2-C-terminal) (Homo sapiens, UniProt Q9UK32); details: RSK4(Kin.Dom.2-C-terminal) (Entrez RPS6KA6), read-out: Percent Control
# T8 construct: RSK4(Kin.Dom.2-C-terminal)
# T8 sequence (Q9UK32 426-683 limits assumed): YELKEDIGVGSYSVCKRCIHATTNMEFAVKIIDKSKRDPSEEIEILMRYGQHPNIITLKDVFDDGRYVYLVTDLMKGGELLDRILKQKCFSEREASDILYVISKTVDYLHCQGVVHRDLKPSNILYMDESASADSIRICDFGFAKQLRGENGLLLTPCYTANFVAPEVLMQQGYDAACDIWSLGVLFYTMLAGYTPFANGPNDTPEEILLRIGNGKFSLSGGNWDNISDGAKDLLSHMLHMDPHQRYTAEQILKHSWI
# Description: as §1
# RET = RET (Homo sapiens, UniProt P07949); details: read-out: Percent Control
# RET, sequence (P07949 29-1114): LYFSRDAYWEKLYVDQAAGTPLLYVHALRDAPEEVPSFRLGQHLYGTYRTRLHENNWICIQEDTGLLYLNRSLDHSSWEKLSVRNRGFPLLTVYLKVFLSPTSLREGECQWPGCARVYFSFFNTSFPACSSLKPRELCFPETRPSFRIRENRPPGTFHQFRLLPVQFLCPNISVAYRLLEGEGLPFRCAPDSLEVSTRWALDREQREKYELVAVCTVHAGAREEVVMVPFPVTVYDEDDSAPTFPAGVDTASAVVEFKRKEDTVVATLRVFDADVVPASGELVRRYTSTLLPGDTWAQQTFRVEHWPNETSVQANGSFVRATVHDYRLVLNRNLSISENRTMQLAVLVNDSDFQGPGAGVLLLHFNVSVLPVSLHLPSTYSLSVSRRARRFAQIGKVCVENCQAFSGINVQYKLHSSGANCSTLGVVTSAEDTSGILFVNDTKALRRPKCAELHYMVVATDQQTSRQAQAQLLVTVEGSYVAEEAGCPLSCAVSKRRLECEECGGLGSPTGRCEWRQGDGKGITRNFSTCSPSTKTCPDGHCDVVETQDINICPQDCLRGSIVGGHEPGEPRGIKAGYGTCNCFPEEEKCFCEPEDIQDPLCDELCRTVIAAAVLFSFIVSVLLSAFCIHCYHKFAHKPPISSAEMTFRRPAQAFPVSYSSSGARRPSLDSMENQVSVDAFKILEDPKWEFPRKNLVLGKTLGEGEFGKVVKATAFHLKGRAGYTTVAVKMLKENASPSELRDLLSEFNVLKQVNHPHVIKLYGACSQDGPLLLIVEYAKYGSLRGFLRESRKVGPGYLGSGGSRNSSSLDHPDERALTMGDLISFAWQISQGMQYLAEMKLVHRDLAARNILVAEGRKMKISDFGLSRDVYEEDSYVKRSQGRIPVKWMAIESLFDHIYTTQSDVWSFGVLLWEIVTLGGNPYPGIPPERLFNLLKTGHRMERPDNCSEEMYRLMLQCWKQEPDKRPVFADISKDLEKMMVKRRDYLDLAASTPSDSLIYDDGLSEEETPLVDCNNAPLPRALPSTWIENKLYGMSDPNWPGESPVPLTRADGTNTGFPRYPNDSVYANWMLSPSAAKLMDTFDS
# Description: as §1
# BRK = BRK (Homo sapiens, UniProt Q13882); details: BRK (Entrez PTK6), read-out: Percent Control
# Description: as §1
# [4] = target: T9, JAK1(JH1domain-catalytic) (Homo sapiens, UniProt P23458); details: read-out: Percent Control
# T9 construct: JAK1(JH1domain-catalytic)
# Description: as §1
# LCK = target: T10, LCK (Homo sapiens, UniProt P06239); details: read-out: Percent Control
# T10 construct: purchased KINOMEscan (panel service)
# Description: as §1
# EPHB1 = target: T11, EPHB1 (Homo sapiens, UniProt P54762); details: read-out: Percent Control
# T11 construct: purchased KINOMEscan (panel service)
# Description: as §1
# ERBB2 = ERBB2 (Homo sapiens, UniProt P04626); details: read-out: Percent Control
# Description: as §1
# TRPM6 = target: T12, TRPM6 (Homo sapiens, UniProt Q9BX84); details: read-out: Percent Control
# T12 construct: purchased KINOMEscan (screening platform)
# Description: as §1
# EGFR(E746-A750del) = EGFR(E746-A750del) (Homo sapiens, UniProt P00533, DEL746-750); details: read-out: Percent Control
# Description: as §1
# EGFR(G719C) = EGFR(G719C) (Homo sapiens, UniProt P00533, G719C); details: read-out: Percent Control
# Description: as §1
# EPHB3 = EPHB3 (Homo sapiens, UniProt P54753); details: read-out: Percent Control
# EPHB3, sequence (P54753 34-998): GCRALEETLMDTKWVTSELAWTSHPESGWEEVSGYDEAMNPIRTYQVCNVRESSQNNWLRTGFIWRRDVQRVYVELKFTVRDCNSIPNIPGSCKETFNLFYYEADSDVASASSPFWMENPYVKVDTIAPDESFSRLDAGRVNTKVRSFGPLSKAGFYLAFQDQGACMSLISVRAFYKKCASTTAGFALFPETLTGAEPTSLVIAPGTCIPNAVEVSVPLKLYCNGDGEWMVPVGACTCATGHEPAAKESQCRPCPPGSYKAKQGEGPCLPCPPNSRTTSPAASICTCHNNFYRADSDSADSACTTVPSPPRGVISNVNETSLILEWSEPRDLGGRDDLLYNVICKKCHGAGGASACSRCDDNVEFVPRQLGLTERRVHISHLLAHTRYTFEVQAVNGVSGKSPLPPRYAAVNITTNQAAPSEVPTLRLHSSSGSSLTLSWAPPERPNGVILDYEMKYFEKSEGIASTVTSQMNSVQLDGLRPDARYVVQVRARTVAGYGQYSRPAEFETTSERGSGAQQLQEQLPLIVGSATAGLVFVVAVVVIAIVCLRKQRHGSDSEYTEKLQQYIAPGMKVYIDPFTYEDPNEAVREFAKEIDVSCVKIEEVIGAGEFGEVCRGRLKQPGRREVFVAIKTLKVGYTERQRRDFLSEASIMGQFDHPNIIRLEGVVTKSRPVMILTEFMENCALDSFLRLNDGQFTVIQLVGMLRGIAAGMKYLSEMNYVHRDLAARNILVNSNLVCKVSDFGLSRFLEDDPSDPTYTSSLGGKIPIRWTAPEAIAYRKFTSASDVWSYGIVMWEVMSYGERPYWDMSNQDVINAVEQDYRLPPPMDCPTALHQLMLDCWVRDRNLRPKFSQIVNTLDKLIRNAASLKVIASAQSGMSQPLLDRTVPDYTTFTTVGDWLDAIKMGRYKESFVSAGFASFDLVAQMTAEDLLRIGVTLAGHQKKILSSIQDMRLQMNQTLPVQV
# Description: as §1
# HCK = HCK (Homo sapiens, UniProt P08631); details: read-out: Percent Control
# Description: as §1
# EPHB4 = EPHB4 (Homo sapiens, UniProt P54760); details: read-out: Percent Control
# EPHB4, sequence (P54760 16-987): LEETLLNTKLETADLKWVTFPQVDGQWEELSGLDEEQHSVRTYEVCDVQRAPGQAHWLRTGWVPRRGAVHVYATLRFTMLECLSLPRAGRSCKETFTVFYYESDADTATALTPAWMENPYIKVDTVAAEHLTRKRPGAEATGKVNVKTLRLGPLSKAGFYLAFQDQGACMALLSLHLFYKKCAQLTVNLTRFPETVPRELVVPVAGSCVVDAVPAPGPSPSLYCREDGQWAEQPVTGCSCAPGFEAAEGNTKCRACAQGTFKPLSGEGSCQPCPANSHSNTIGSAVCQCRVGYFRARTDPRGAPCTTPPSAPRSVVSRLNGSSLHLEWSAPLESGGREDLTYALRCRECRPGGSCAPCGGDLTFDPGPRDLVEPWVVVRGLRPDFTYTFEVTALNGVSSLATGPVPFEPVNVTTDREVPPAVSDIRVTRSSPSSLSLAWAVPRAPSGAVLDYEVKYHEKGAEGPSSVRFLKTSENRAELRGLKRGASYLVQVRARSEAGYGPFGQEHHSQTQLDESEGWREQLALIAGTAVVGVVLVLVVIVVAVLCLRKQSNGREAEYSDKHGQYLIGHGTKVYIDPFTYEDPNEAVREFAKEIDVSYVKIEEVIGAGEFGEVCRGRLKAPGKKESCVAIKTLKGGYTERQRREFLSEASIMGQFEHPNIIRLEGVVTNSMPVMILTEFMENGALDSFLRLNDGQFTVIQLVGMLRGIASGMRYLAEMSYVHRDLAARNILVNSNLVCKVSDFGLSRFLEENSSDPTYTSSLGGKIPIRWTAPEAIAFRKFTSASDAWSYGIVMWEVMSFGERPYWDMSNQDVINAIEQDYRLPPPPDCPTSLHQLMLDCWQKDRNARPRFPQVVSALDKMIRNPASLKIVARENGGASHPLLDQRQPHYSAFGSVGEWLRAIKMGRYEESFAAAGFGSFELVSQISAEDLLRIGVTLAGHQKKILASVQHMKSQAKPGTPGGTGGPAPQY
# Description: as §1
# TAOK2 = target: T13, TAOK2 (Homo sapiens, UniProt Q9UL54); details: read-out: Percent Control
# T13 construct: purchased KINOMEscan (screening service)
# Description: as §1
# JNK2 = JNK2 (Homo sapiens, UniProt P45984); details: JNK2 (Entrez MAPK9), read-out: Percent Control
# Description: as §1
# DRAK2 = target: T14, DRAK2 (Homo sapiens, UniProt O94768); details: DRAK2 (Entrez STK17B), read-out: Percent Control
# T14 construct: purchased KINOMEscan (screening service)
# Description: as §1
# ROS1 = target: T15, ROS1 (Homo sapiens, UniProt P08922); details: read-out: Percent Control
# T15 construct: purchased KINOMEscan (screening service)
# Description: as §1
# PIP5K2C = target: T16, PIP5K2C (Homo sapiens, UniProt Q8TBX8); details: PIP5K2C (Entrez PIP4K2C), read-out: Percent Control
# T16 construct: purchased KINOMEscan (screening service)
# Description: as §1
# SRC = target: T17, SRC (Homo sapiens, UniProt P12931); details: read-out: Percent Control
# T17 construct: purchased KINOMEscan (panel service)
# Description: as §1
# ABL1-phosphorylated = ABL1-phosphorylated (Homo sapiens, UniProt P00519); details: read-out: Percent Control
# Description: as §1
# EGFR(G719S) = EGFR(G719S) (Homo sapiens, UniProt P00533, G719S); details: read-out: Percent Control
# Description: as §1
smiles,measurement,setting,value
"Cc1ccc(Nc2ncc3c(n2)N(C)CN(c2cc(NC(=O)c4cccc(C(F)(F)F)c4)ccc2C)C3)cn1 [IA-9, N-(4-methyl-3-(1-methyl-7-((6-methylpyridin-3-yl)amino)-1,4-dihydropyrimido[4,5-d]pyrimidin-3(2H)-yl)phenyl)-3-(trifluoromethyl)benzamide]",remaining binding at 10 µM,[1],0.75%
same,remaining binding at 10 µM,"GCN2(Kin.Dom.2, S808G)",1.3%
same,remaining binding at 10 µM,FER,3.6%
same,remaining binding at 10 µM,TNIK,4.8%
same,remaining binding at 10 µM,DRAK1,22%
same,remaining binding at 10 µM,EPHA5,0.9%
same,remaining binding at 10 µM,"EGFR(L858R, T790M)",24%
same,remaining binding at 10 µM,EGFR,0.05%
same,remaining binding at 10 µM,[2],0.2%
same,remaining binding at 10 µM,EPHA1,0.35%
same,remaining binding at 10 µM,KIT(D816H),5.4%
same,remaining binding at 10 µM,BTK,0.15%
same,remaining binding at 10 µM,JNK1,28%
same,remaining binding at 10 µM,RAF1,12%
same,remaining binding at 10 µM,[3],2.6%
same,remaining binding at 10 µM,RET,0%
same,remaining binding at 10 µM,BRK,0.9%
same,remaining binding at 10 µM,[4],2%
same,remaining binding at 10 µM,LCK,0.15%
same,remaining binding at 10 µM,EPHB1,0.15%
same,remaining binding at 10 µM,ERBB2,0%
same,remaining binding at 10 µM,TRPM6,26%
same,remaining binding at 10 µM,EGFR(E746-A750del),2.3%
same,remaining binding at 10 µM,EGFR(G719C),0%
same,remaining binding at 10 µM,EPHB3,0%
same,remaining binding at 10 µM,HCK,0.55%
same,remaining binding at 10 µM,EPHB4,0%
same,remaining binding at 10 µM,TAOK2,15%
same,remaining binding at 10 µM,JNK2,0.7%
same,remaining binding at 10 µM,DRAK2,17%
same,remaining binding at 10 µM,ROS1,17%
same,remaining binding at 10 µM,PIP5K2C,19%
same,remaining binding at 10 µM,SRC,0.15%
same,remaining binding at 10 µM,ABL1-phosphorylated,0.3%
same,remaining binding at 10 µM,EGFR(G719S),0%
